Key:
PFK = tested on: PFK; design: key to Effect (activator or inhibitor of PFK): “+” indicates activator; “-“ indicates inhibitor; conditions: cited from earlier work; for Effect (activator or inhibitor of PFK): published literature, ref selected references in Supplementary Table 1
PFKM = conditions: PFKM; ref Sanchez-Martinez et al., 2000; read-out: Kact; cited from earlier work
PFKL = conditions: ref Van Schaftingen et al 1981; cited from earlier work
recombinant human PFK-M = target: T1, recombinant human PFK-M (Homo sapiens, UniProt P08237); experiment: ALDO-TIM-G3PDH enzyme-linked kinetic assay, PFK-M; format: biochemical; conditions: modulator 1100 µM
T1 construct: made in house; host or cells: PFK-deficient Saccharomyces cerevisiae
T1 sequence (P08237 1-780): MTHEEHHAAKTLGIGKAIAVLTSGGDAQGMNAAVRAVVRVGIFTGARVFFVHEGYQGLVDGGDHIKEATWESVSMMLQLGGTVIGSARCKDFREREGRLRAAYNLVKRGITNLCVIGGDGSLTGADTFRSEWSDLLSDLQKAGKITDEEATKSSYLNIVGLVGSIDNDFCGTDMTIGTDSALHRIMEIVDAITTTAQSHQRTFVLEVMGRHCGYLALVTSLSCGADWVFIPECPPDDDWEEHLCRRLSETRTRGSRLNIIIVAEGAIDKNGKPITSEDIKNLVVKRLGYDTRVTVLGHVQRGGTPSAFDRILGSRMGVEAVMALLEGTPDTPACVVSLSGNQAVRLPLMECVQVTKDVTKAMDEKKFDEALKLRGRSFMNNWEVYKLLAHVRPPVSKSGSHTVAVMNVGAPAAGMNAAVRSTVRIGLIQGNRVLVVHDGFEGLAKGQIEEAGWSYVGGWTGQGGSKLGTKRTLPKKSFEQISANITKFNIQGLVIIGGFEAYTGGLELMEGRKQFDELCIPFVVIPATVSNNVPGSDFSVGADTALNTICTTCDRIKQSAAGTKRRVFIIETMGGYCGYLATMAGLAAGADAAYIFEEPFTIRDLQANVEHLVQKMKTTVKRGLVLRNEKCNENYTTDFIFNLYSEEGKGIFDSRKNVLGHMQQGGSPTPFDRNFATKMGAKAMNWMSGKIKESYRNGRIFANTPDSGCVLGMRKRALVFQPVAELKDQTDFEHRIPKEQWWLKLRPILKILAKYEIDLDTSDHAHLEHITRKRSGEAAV
Protocol: (§1) Recombinant human PFKs were expressed in PFK-deficient Saccharomyces cerevisiae and purified using the methods described previously, adapting earlier materials and protocols. Production of PFK intended for use in ATP titration experiments used 1 mM F6P as a tetramer stabilising agent in protein purification and storage buffers. Production of PFK intended for use in F6P titration experiments used 1 mM ATP as a tetramer stabilising agent in protein purification and storage buffers. Experimental details on the purification and characterisation procedures including figures showing SDS–PAGE gels of the highly pure PFKs used in the kinetic experiments described in this work have been recently published.
(§2) Assay buffer consisted of 50 mM TEA, 100 mM KCl, 10 mM MgCl2, 1 mM Tris(2-carboxyethyl)phosphine hydrochloride (TCEP), 10% glycerol, pH 7.4. Assay mix consisted of 5 units/ml glycerol-3-phosphate dehydrogenase (G3PDH, Sigma–Aldrich G6880), 2.5 units/ml aldolase (Sigma–Aldrich A2714), 25 units/ml triosephosphate isomerase (TIM, Sigma–Aldrich T6258), and 1.25 mM NADH. ATP and F6P were obtained from Sigma–Aldrich (A2383 and F3627, respectively). For ATP titrations, 38 µl of buffer or ligand were added to a clear non-binding 96-well plate. 40 µl of assay mix containing 10 mM F6P (final concentration 4 mM) was added and the plate was incubated at 25°C for 5 min. An amount of 2 µl of PFK isoforms were added to each well from stock concentrations of 150 µg/ml and the reaction was immediately started with 20 µl of ATP at varying concentrations. For F6P titrations, 30 µl of buffer or ligand was added to a clear non-binding 96-well plate. An amount of 40 µl of assay mix containing 1.25 mM ATP (final concentration 0.5 mM) was added and the plate was incubated at 25°C for 5 min. An amount of 5 µl of PFK isoforms were added to each well from stock concentrations of 200 µg/ml and the reaction was immediately started with 20 µl F6P at varying concentrations. All ligands and substrates (including ATP) were used at pH 7.4. All metabolites were obtained from Sigma–Aldrich unless otherwise stated. […] A SpectraMax M5 Multi-Mode Microplate Reader was used to measure A340nm at 13 s intervals for 10 min. All experiments were performed in triplicate unless otherwise stated.
(§3) Time-dependent absorbance change was converted into rate of NADH oxidation (µM s^−1) or specific activity (µmol min^−1 mg protein^−1) using the Beer-Lambert law (molar extinction coefficient of NADH 6.22 mM^−1 cm^−1). The initial rate of reaction was used to avoid accumulation of ADP, which activates PFK, interfering with the determination of kinetic properties. Non-linear regression analysis was performed on substrate titration data using GraphPad Prism 7, with curves fitted using allosteric sigmoidal models, enabling determination of steady-state kinetic values.

recombinant human PFK-L = target: T2, recombinant human PFK-L (Homo sapiens, UniProt P17858); experiment: ALDO-TIM-G3PDH enzyme-linked kinetic assay, PFK-L; format: biochemical; conditions: PFK-L, modulator 1100 µM
T2 construct: made in house; host or cells: PFK-deficient Saccharomyces cerevisiae
T2 sequence (P17858 1-780): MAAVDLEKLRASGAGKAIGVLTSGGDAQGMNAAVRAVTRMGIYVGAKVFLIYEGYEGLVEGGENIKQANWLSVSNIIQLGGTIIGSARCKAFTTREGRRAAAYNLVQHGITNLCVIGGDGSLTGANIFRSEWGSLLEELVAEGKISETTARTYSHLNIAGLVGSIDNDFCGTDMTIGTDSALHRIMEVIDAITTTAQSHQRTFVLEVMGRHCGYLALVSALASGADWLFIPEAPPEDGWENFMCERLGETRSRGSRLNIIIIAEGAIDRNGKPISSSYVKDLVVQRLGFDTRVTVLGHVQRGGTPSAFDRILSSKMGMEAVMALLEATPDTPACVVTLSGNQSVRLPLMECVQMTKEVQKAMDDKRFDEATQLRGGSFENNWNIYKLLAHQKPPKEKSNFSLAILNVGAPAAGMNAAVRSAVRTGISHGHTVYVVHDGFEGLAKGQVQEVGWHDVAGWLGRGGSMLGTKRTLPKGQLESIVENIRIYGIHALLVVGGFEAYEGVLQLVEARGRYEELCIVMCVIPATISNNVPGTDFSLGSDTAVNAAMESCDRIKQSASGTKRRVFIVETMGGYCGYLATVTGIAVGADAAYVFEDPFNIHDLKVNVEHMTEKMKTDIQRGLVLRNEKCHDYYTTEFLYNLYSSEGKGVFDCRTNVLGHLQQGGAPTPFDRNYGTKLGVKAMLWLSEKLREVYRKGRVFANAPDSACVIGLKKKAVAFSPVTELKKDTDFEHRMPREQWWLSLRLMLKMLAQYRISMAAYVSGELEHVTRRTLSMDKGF
Protocol: as §1, §2, §3

recombinant human PFK-P = target: T3, recombinant human PFK-P (Homo sapiens, UniProt Q01813); experiment: ALDO-TIM-G3PDH enzyme-linked kinetic assay, PFK-P; format: biochemical; conditions: modulator 1100 µM
T3 construct: made in house; host or cells: PFK-deficient Saccharomyces cerevisiae
T3 sequence (Q01813 1-784): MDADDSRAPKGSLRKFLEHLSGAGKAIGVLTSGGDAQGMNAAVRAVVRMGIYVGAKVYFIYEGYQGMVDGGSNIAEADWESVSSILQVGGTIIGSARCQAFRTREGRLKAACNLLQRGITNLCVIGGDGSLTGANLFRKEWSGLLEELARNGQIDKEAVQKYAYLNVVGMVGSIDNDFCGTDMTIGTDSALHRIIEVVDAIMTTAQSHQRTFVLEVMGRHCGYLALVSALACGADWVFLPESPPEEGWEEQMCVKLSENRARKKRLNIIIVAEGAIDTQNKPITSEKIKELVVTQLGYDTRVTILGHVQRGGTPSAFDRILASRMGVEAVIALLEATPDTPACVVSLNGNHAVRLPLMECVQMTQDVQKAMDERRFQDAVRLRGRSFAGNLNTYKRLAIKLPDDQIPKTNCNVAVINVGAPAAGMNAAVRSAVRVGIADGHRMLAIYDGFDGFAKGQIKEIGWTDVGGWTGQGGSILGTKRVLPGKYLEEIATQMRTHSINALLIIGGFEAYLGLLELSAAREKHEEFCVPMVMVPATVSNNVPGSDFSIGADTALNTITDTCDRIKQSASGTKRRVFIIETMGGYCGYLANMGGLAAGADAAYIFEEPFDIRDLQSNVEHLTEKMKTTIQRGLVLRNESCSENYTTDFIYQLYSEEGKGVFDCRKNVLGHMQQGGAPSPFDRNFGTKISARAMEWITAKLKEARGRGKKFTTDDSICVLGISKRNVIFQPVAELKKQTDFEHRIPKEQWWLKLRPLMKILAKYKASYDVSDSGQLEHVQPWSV
Protocol: as §1, §2, §3

PFKP = conditions: ref Sanchez-Martinez et al., 2000; cited from earlier work
[1] = tested on: monocyte-derived macrophages; design: method as in FANTOM5 database; conditions: n = 3, ref FANTOM5 database, cited from earlier work

O=C1O[C@H]([C@@H](O)CO)C(O)=C1O [Ascorbate]
Effect (activator or inhibitor of PFK) (PFK): -

O=C(COP(=O)(O)O)[C@@H](O)[C@H](O)[C@H](O)COP(=O)(O)O [F16BP, fructose 1,6-bisphosphate]
EC50 (PFKM): 1.5 µM | IC50 or AC50 (activator) (PFKL): 40 µM | Effect (activator or inhibitor of PFK) (PFK): +

O=P(O)(O)OC[C@H]1O[C@H](OP(=O)(O)O)[C@H](O)[C@@H](O)[C@@H]1O [G16BP]
IC50 or AC50 (activator) (PFKL): 100 µM | Effect (activator or inhibitor of PFK) (PFK): +

Nc1nc2c(ncn2[C@@H]2O[C@H](COP(=O)(O)OP(=O)(O)O)[C@@H](O)[C@H]2O)c(=O)[nH]1 [GDP]
change in kcat^ATP/K0.5^ATP compared with control PFK without modulator (recombinant human PFK-M): +4.3% | change in kcat^ATP/K0.5^ATP compared with control PFK without modulator (recombinant human PFK-L): −48% | K0.5ATP + modulator (recombinant human PFK-L; F6P 4mM, N=3, mean (SD)): 404.4 (65.6) M | VmaxATP + modulator (recombinant human PFK-L; F6P 4mM, N=3, mean (SD)): 44.20 (2.84) moles/min/mg | change in kcat^ATP/K0.5^ATP compared with control PFK without modulator (recombinant human PFK-P): −0.2% | K0.5ATP + modulator (recombinant human PFK-P; F6P 4mM, N=3, mean (SD)): 924.6 (367.7) M | VmaxATP + modulator (recombinant human PFK-P; F6P 4mM, N=3, mean (SD)): 31.48 (4.42) moles/min/mg

[K+] [K+]
Effect (activator or inhibitor of PFK) (PFK): +

N [NH4+]
IC50 or AC50 (activator) (PFKP): 400 µM | Effect (activator or inhibitor of PFK) (PFK): +

O=P(O)(O)O [PO4 3-]
IC50 or AC50 (activator) (PFKP): 300 µM | Effect (activator or inhibitor of PFK) (PFK): +

Nc1nc2c(ncn2[C@@H]2O[C@@H]3COP(=O)(O)O[C@H]3[C@H]2O)c(=O)[nH]1 [cGMP]
Effect (activator or inhibitor of PFK) (PFK): -

Actin
Effect (activator or inhibitor of PFK) (PFK): +

Lactate
Effect (activator or inhibitor of PFK) (PFK): - | IC50 (PFK; value marked *, asterisk not explained, ref Costa Leite et al., 2007, read-out: IC50 or AC50 (inhibitor)): 4600 µM

lipopolysaccharide [LPS]
PFK-P transcript level ([1]; monocyte-derived macrophages activated by LPS): 10.3 × baseline | PFK-L transcript level ([1]; monocyte-derived macrophages after LPS stimulation): 1.9 × baseline

B1: Band 3: protein, PFK inhibitor in the published literature (protein, UniProt P02730 1-911, looked up)
Band 3 anion transport protein: MEELQDDYEDMMEENLEQEEYEDPDIPESQMEEPAAHDTEATATDYHTTSHPGTHKVYVELQELVMDEKNQELRWMEAARWVQLEENLGENGAWGRPHLSHLTFWSLLELRRVFTKGTVLLDLQETSLAGVANQLLDRFIFEDQIRPQDREELLRALLLKHSHAGELEALGGVKPAVLTRSGDPSQPLLPQHSSLETQLFCEQGDGGTEGHSPSGILEKIPPDSEATLVLVGRADFLEQPVLGFVRLQEAAELEAVELPVPIRFLFVLLGPEAPHIDYTQLGRAAATLMSERVFRIDAYMAQSRGELLHSLEGFLDCSLVLPPTDAPSEQALLSLVPVQRELLRRRYQSSPAKPDSSFYKGLDLNGGPDDPLQQTGQLFGGLVRDIRRRYPYYLSDITDAFSPQVLAAVIFIYFAALSPAITFGGLLGEKTRNQMGVSELLISTAVQGILFALLGAQPLLVVGFSGPLLVFEEAFFSFCETNGLEYIVGRVWIGFWLILLVVLVVAFEGSFLVRFISRYTQEIFSFLISLIFIYETFSKLIKIFQDHPLQKTYNYNVLMVPKPQGPLPNTALLSLVLMAGTFFFAMMLRKFKNSSYFPGKLRRVIGDFGVPISILIMVLVDFFIQDTYTQKLSVPDGFKVSNSSARGWVIHPLGLRSEFPIWMMFASALPALLVFILIFLESQITTLIVSKPERKMVKGSGFHLDLLLVVGMGGVAALFGMPWLSATTVRSVTHANALTVMGKASTPGAAAQIQEVKEQRISGLLVAVLVGLSILMEPILSRIPLAVLFGIFLYMGVTSLSGIQLFDRILLLFKPPKYHPDVPYVKRVKTWRMHLFTGIQIICLAVLWVVKSTPASLALPFVLILTVPLRRVLLPLIFRNVELQCLDADDAKATFDEEEGRDEYDEVAMPV
Effect (activator or inhibitor of PFK) (PFK): -

— PMC7702303, “Biochemical and transcript level differences between the three human phosphofructokinases show optimisation of each isoform for specific metabolic niches” (Biochemical Journal, 2020)
